Data on 36 compounds can be found in patent publication US9371319B2, “Pyrrolopyridineamino derivatives as MPS1 inhibitors” (priority 2011, dated 2016).

The target in this experiment is T1, full length MPS1 (Homo sapiens, UniProt P33981).
T1 sequence (P33981 1-857): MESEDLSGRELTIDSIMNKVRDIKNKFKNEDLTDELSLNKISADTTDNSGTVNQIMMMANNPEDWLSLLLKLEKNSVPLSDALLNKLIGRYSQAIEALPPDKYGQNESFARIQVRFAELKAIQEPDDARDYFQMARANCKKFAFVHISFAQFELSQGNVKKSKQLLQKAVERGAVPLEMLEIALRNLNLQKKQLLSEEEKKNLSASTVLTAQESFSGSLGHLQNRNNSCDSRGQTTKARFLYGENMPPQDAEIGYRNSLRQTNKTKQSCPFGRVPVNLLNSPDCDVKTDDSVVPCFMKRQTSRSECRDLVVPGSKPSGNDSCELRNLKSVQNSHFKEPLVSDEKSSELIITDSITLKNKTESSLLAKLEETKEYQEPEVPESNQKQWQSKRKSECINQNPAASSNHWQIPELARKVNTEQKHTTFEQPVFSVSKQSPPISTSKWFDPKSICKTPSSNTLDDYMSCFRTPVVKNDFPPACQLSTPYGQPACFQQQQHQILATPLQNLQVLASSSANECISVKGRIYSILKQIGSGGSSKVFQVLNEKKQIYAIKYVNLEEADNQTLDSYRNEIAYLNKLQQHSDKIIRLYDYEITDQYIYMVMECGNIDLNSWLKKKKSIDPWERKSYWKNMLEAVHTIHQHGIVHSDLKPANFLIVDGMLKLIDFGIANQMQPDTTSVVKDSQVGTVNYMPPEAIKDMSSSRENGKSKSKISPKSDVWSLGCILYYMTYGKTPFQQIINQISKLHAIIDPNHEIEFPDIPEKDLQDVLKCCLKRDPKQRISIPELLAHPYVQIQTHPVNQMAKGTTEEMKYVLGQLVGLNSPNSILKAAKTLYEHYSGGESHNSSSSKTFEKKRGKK
In words: biochemical. On the procedure: Measurement of Inhibition of MPS1 Kinase
(5 μM), ATP (10 μM), either DMSO (1% v/v) or the test compound (in the range 0.25 nM-100 μM in 1% DMSO) and assay buffer (50 mM HEPES (pH 7.0), 0.02% NaN3, 0.01% BSA, 0.1 mM Orthovandate, […], 1 μM DTT, Roche protease inhibitor). The reaction was carried out for 60 min at room temperature and stopped by the addition of buffer (10 μl) containing 20 mM EDTA, 0.05% (v/v) Brij-35, in 0.1M HEPES-buffered saline (Free acid, Sigma, UK). The plate was read on a Caliper EZ reader II (Caliper Life Sciences).
The % inhibition of the compounds is calculated relative to the means of selected control wells. […] The % inhibitions at each concentration are then fitted to a 4 parameter logistic fit: y=(a+((b−a)/(1+((c/x^d)))) where a=asym min, b=asym max, c=IC50 and d=hill coefficient
For the compound `CCCOC(=O)n1c(-c2cnn(C)c2)cc2cnc(Nc3ccc(-c4cnc(C)n4C)cc3Cl)cc21` [Example 88], it took 0.002 µM to reach half-maximal inhibition (IC50). Consider `CC(C)OC(=O)n1c(-c2cnn(C)c2)cc2cnc(Nc3ccc(-c4cncn4C)cc3Cl)cc21` [Example 79], for which the IC50 (commonly the concentration needed to halve the response being measured) was 0.003 µM. As to `Fc1ccc(Nc2cc3[nH]c(-c4cn[nH]c4)cc3cn2)cc1` [Example 188, N-(4-fluorophenyl)-2-(1H-pyrazol-4-yl)-1H-pyrrolo[3,2-c]pyridin-6-amine], inhibition was half-maximal at 0.14 µM (IC50). The value for `CN(C)C(=O)c1cc(Cl)c(Nc2cc3c(cn2)cc(-c2cnn(C)c2)n3C(=O)OC(C)(C)C)c(Cl)c1` [Example 13] was 0.02 µM.

The compound `CN(C)C(=O)c1ccc(Nc2cc3c(cn2)cc(-c2cnn(C)c2)n3C2CCCC2)c(Cl)c1` [Example 73] had an IC50 of 0.007 µM. For `CN(C)C(=O)c1ccc(Nc2cc3c(cn2)cc(-c2cnn(C)c2)n3CC2CCCCC2)c(Cl)c1` [Example 71], the concentration for half-maximal inhibition (IC50) came out at 0.067 µM. In the case of `Cc1ncc(-c2ccc(Nc3cc4[nH]c(-c5cnco5)cc4cn3)c(Cl)c2)n1C` [Example 186, N-(2-Chloro-4-(1,2-dimethyl-1H-imidazol-5-yl)phenyl)-2-(oxazol-5-yl)-1H-pyrrolo[3,2-c]pyridin-6-amine] it was 0.001 µM; in that of `COc1cc(CN)ccc1Nc1cc2[nH]c(-c3cnn(C)c3)cc2cn1` [Example 140, N-(4-(Aminomethyl)-2-methoxyphenyl)-2-(1-methyl-1H-pyrazol-4-yl)-1H-pyrrolo[3,2-c]pyridin-6-amine], 0.043 µM. The value for `Cn1cc(-c2cc3cnc(Nc4ccc(N5CCCC5=O)cc4Cl)cc3[nH]2)cn1` [Example 136, 1-(3-chloro-4-((2-(1-methyl-1H-pyrazol-4-yl)-1H-pyrrolo[3,2-c]pyridin-6-yl)amino)phenyl)pyrrolidin-2-one] was 0.018 µM; that for `COc1cc(OC2CCN(C)CC2)ccc1Nc1cc2[nH]c(-c3cn[nH]c3)cc2cn1` [Example 166, N-(2-Methoxy-4-(1-methylpiperidin-4-yloxy)phenyl)-2-(1H-pyrazol-4-yl)-1H-pyrrolo[3,2-c]pyridin-6-amine] was 0.007 µM. `CC(C)OC(=O)n1c(-c2cnn(C)c2)cc2cnc(Nc3cc(-c4cnn(C)c4)ccc3Cl)cc21` [Example 89] had an IC50 of 0.287 µM. In the case of `COCCNC(=O)c1ccc(Nc2cc3c(cn2)cc(-c2cnn(C)c2)n3C(=O)OC(C)(C)C)c(OC)c1` [Example 11] it was 0.009 µM; in that of `CN(C)C(=O)c1ccc(Nc2cc3c(cn2)cc(-c2cnn(C)c2)n3Cc2ccc(F)cc2)c(Cl)c1` [Example 70], 0.038 µM.

On to `CCN(C)C(=O)c1ccc(Nc2cc3c(cn2)cc(-c2cnn(C)c2)n3C(=O)OC(C)(C)C)c(Cl)c1` [Example 39], for which the midpoint of inhibition, the IC50, lay at 0.004 µM. On to `Cn1cc(-c2ccc(Cl)c(Nc3cc4c(cn3)cc(-c3cnn(C)c3)n4C(=O)OC(C)(C)C)c2)cn1` [Example 62], for which the IC50 is 0.537 µM.

As for `CCN(C)C(=O)c1ccc(Nc2cc3[nH]c(-c4cnn(C)c4)cc3cn2)c(Cl)c1` [Example 144, 3-Chloro-N-ethyl-N-methyl-4-(2-(1-methyl-1H-pyrazol-4-yl)-1H-pyrrolo[3,2-c]pyridin-6-ylamino)benzamide], half-maximal inhibition (IC50) required 0.011 µM. The value for `COc1cc(-c2cn(C)nc2C)ccc1Nc1cc2c(cn1)cc(-c1cnn(C)c1)n2C(=O)OC(C)C` [Example 103] was 0.002 µM; that for `Cn1cc(-c2ccc(Nc3cc4[nH]c(-c5cnn(C)c5)c(Cl)c4cn3)c(Cl)c2)cn1` [Example 194, 3-Chloro-N-(2-chloro-4-(1-methyl-1H-pyrazol-4-yl)phenyl)-2-(1-methyl-1H-pyrazol-4-yl)-1H-pyrrolo[3,2-c]pyridin-6-amine] was 0.128 µM; that for `CN(C)C(=O)c1ccc(Nc2cc3c(cn2)c(Cl)c(-c2cnn(C)c2)n3CC2CCCC2)c(Cl)c1` [Example 191, 3-Chloro-4-(3-chloro-1-(cyclopentylmethyl)-2-(1-methyl-1H-pyrazol-4-yl)-1H-pyrrolo[3,2-c]pyridin-6-ylamino)-N,N-dimethylbenzamide] was 0.097 µM. The value for `Cc1ncc(-c2ccc(Nc3cc4c(cn3)cc(-c3cnn(C)c3)n4C(=O)OC(C)C)cc2)n1C` [Example 108] was 0.002 µM. The value for `N#Cc1ccc(Nc2cc3[nH]c(-c4cn[nH]c4)cc3cn2)cc1` [Example 177, 4-(2-(1H-pyrazol-4-yl)-1H-pyrrolo[3,2-c]pyridin-6-ylamino) benzonitrile] was 0.15 µM; that for `Cn1cc(-c2cc3cnc(Nc4ccc(-c5ccnn5C)cc4Cl)cc3[nH]2)cn1` [Example 149, N-(2-Chloro-4-(1-methyl-1H-pyrazol-5-yl)phenyl)-2-(1-methyl-1H-pyrazol-4-yl)-1H-pyrrolo[3,2-c]pyridin-6-amine] was 0.022 µM. In turn, `Cc1nc(C)c(-c2ccc(Nc3cc4[nH]c(-c5cnn(C)c5)cc4cn3)c(Cl)c2)s1` [Example 150, N-(2-Chloro-4-(2,4-dimethylthiazol-5-yl)phenyl)-2-(1-methyl-1H-pyrazol-4-yl)-1H-pyrrolo[3,2-c]pyridin-6-amine] showed an IC50 of 0.114 µM. In the case of `Cn1cc(-c2cc3cnc(Nc4ccc(-c5ccn(C)n5)cc4Cl)cc3[nH]2)cn1` [Example 124, N-(2-Chloro-4-(1-methyl-1H-pyrazol-3-yl)phenyl)-2-(1-methyl-1H-pyrazol-4-yl)-1H-pyrrolo[3,2-c]pyridin-6-amine] it was 0.052 µM; in that of `CS(=O)(=O)n1c(-c2cn[nH]c2)cc2cnc(Nc3ccc(F)cc3)cc21` [Example 187, N-(4-fluorophenyl)-1-(methylsulfonyl)-2-(1H-pyrazol-4-yl)-1H-pyrrolo[3,2-c]pyridin-6-amine], 6.43 µM; in that of `CNC(=O)c1ccc(Nc2cc3[nH]c(-c4cnn(C)c4)cc3cn2)c(OC)c1` [Example 133, 3-Methoxy-N-methyl-4-(2-(1-methyl-1H-pyrazol-4-yl)-1H-pyrrolo[3,2-c]pyridin-6-ylamino)benzamide], 0.027 µM. In the case of `COc1cc(-c2ccc(Nc3cc4[nH]c(-c5cnn(C)c5)cc4cn3)c(Cl)c2)ccn1` [Example 151, N-(2-Chloro-4-(2-methoxypyridin-4-yl)phenyl)-2-(1-methyl-1H-pyrazol-4-yl)-1H-pyrrolo[3,2-c]pyridin-6-amine] it was 0.182 µM.

Turning to `Cn1cc(-c2cc3cnc(Nc4ccc(-c5cncn5C)cc4Cl)cc3[nH]2)cn1` [Example 125, N-(2-Chloro-4-(1-methyl-1H-imidazol-5-yl)phenyl)-2-(1-methyl-1H-pyrazol-4-yl)-1H-pyrrolo[3,2-c]pyridin-6-amine], the IC50 was determined as 0.004 µM. The value for `COc1cc(C(=O)N2CC(OC)C2)ccc1Nc1cc2c(cn1)cc(-c1cnco1)n2C(=O)OC(C)(C)C` [Example 97] was 0.01 µM.

As to `Cn1cc(-c2cc3cnc(Nc4ccc(-n5cncn5)cc4Cl)cc3[nH]2)cn1` [Example 129, N-(2-Chloro-4-(1H-1,2,4-triazol-1-yl)phenyl)-2-(1-methyl-1H-pyrazol-4-yl)-1H-pyrrolo[3,2-c]pyridin-6-amine], half-maximal inhibition (IC50) required 0.055 µM. In the case of `Cc1ccc(-n2c(-c3cnn(C)c3)cc3cnc(Nc4ccc(C(=O)N(C)C)cc4Cl)cc32)nc1` [Example 92] it was 0.043 µM; in that of `Cn1cc(-c2cc3cnc(Nc4ccc(C(=O)N5CC(F)(F)C5)cc4Cl)cc3n2C(=O)OC(C)(C)C)cn1` [Example 50], 0.006 µM.

Take `COc1cc(C(=O)N2CCOCC2)ccc1Nc1cc2[nH]c(-c3cnn(C)c3)cc2cn1` [Example 118, (3-Methoxy-4-(2-(1-methyl-1H-pyrazol-4-yl)-1H-pyrrolo[3,2-c]pyridin-6-ylamino)phenyl)(morpholino)methanone]: the IC50 came to 0.012 µM. The value for `CN(C)C(=O)c1ccc(Nc2cc3c(cn2)cc(-c2cnn(C)c2)n3S(=O)(=O)C2CCCC2)c(Cl)c1` [Example 110, 3-Chloro-4-(1-(cyclopentylsulfonyl)-2-(1-methyl-1H-pyrazol-4-yl)-1H-pyrrolo[3,2-c]pyridin-6-ylamino)-N,N-dimethylbenzamide] was 0.092 µM; that for `CC(C)n1c(-c2cnn(C)c2)cc2cnc(Nc3ccc(C(=O)N(C)C)cc3Cl)cc21` [Example 74] was 0.05 µM; that for `CC(C)OC(=O)n1c(-c2cnn(C)c2)cc2cnc(Nc3ccc(C(=O)N(C)C)cc3Cl)cc21` [Example 77] was 0.006 µM.
